Assay results reported in patent US9486491B2, “Collagen peptide composition production method, DPP-4 inhibitor, and antihyperglycemic agent” (Nippi, Incorporated, priority 2012, dated 2016).
≈ marks a conversion by molar mass, not a printed value. Non-standard residues stand in square brackets, D forms with d. Residues, ends and D or L forms follow the SMILES beside them. No end group written: not given here. Hyp = O=C(O)[C@@H]1C[C@@H](O)CN1

target: T1, DPP-4 (derived from porcine kidney) (Sus scrofa, UniProt P22411); assay: DPP-4 inhibition rate / IC50 value measurement (Gly-Pro-MCA fluorescence); format: biochemical; details: individual oligopeptides
T1 construct: purchased Sigma; host or cells: porcine kidney (tissue-derived enzyme)
T1 sequence (P22411 whole entry): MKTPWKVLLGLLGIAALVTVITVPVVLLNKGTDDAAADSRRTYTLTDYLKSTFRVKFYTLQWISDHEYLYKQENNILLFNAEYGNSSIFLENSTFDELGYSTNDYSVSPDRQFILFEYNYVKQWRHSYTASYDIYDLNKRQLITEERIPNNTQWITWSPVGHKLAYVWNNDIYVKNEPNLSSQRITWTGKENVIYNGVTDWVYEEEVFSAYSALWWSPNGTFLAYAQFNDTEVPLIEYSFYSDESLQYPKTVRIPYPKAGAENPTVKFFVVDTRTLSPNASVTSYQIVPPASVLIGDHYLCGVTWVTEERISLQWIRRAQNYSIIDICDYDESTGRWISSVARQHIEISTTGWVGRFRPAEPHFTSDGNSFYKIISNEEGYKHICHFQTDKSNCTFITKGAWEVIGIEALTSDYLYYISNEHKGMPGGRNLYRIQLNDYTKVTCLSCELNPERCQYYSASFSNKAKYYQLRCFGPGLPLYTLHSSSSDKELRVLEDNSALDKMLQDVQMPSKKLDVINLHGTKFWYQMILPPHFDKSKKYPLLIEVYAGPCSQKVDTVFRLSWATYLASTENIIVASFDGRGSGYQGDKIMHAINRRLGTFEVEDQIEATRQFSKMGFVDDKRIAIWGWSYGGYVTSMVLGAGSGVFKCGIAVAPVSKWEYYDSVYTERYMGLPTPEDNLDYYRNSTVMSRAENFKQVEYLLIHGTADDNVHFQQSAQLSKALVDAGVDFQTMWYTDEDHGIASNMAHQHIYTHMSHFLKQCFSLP
Protocol: Thirty-five μl of sample solution obtained by dissolving a sample in 50 mM tris-hydrochloric acid buffer (pH 7.5) and 15 μl of DPP-4 (manufactured by Sigma, derived from porcine kidney; 8.6 mU/ml) that was dissolved in 50 mM tris-hydrochloric acid buffer (pH 7.5) were mixed in a microtiter plate well (manufactured by NUNC, trade name “237015”) and incubated at 37° C. for 10 minutes.
To this, 50 μl of substrate solution (obtained by dissolving glycylproline-4-methylcoumarin-7-amide (Gly-Pro-MCA) in 50 mM tris-hydrochloric acid buffer (pH 7.5) at 10 μM) kept at 37° C. in advance was added and mixed to react at 37° C. for 20 minutes.
The fluorescence intensity of 7-amino-4-methylcoumarin (AMC) released by DPP-4 was measured with time using a microplate reader-type fluorescence detector (manufactured by Corona Electric Co., Ltd., trade name “SH-9000”). As for the wavelength used for the measurement, the excitation wavelength was 380 nm and the measurement wavelength was 460 nm Instead of sample, 50 mM tris-hydrochloric acid buffer (pH 7.5) in an identical amount was employed as a control and the fluorescence intensity thereof was measured.
The activity of DPP-4 was expressed in an average gradient of change in the amount of fluorescence intensity during a reaction time. As for a DPP-4 inhibition rate, difference was calculated by, with the control as 100%, subtracting the activity of sample from the above-mentioned control to use as the inhibition rate (%).
According to the above method of measuring the DPP-4 inhibition rate, a 50% inhibitory concentration (IC50 value) of the DPP-4 activity in terms of one ml of reaction system was calculated by using the inhibition rates obtained by changing the concentration of sample.

Row | Compound | IC50 value [µg/mL]
1 | C[C@H](N)C(=O)N1C[C@H](O)C[C@H]1C(=O)NCC(=O)O [AlaHypGly] (H-Ala-[Hyp]-Gly-OH; N-terminus and C-terminus assumed) | 2450 (≈ 9450 µM)
2 | CC(C)C[C@H](N)C(=O)N1C[C@H](O)C[C@H]1C(=O)NCC(=O)N1CCC[C@H]1C(=O)N[C@@H](C)C(=O)O [LeuHypGlyProAla] (H-L[Hyp]GPA-OH; N-terminus and C-terminus assumed) | 390 (≈ 831 µM)
3 | GPIGPV [GlyProIleGlyProVal] | 5
4 | CC(C)C[C@H](N)C(=O)N1C[C@H](O)C[C@H]1C(=O)NCC(=O)O [LeuHypGly] (H-Leu-[Hyp]-Gly-OH; N-terminus and C-terminus assumed) | 39 (≈ 129 µM)
5 | CC[C@H](C)[C@H](N)C(=O)N1C[C@H](O)C[C@H]1C(=O)NCC(=O)O [IleHypGly] (H-Ile-[Hyp]-Gly-OH; N-terminus and C-terminus assumed) | 150 (≈ 498 µM)

tested on: not listed separately; assay: Glucose tolerance test in mice, blood glucose level; format: in vivo, C57BL/6J male mice; details: 3 mg/kg oral one hour before glucose; 15 minutes after the administration of glucose
Protocol: (1) Twenty-five C57BL/6J male mice at an age of eight weeks (Charles River Laboratories Japan) were subjected to habituation breeding for one week. For seven days prior to a glucose tolerance test, each mouse was given 0.25 ml of distilled water to acclimate to oral administration.
(2) On the day before the glucose tolerance test, the mouse was fasted except for water for 18 hours starting at 16 o'clock. […] The five groups consist of a positive control group, collagen peptide composition administered groups (400 mg/kg, 1000 mg/kg, and 2000 mg/kg), and a negative control group.
(i) The positive control group was orally administered sitagliptin (manufactured by MSD, Januvia) at 3 mg/kg one hour before administration of 20 w/v % glucose aqueous solution.
(ii) The collagen peptide composition administered groups were orally administered the above peptide powder dissolved in distilled water to be a dose of 400 mg/kg, 1000 mg/kg, or 2000 mg/kg 15 minutes before the administration of glucose.
(iii) The negative control group was orally administered 20 ml/kg of distilled water 15 minutes before the administration of glucose.
(3) The glucose was administered. […]
(4) After the administration of glucose, the blood was drawn from the tail at 15, 30, 60, and 120 minutes; and the blood glucose level was measured using a simple blood glucose measuring instrument (manufactured by Arkray Factory, GT-164). […]

Row | Compound | blood glucose level [mg/dL]
6 | N[C@@H](CC(=O)N1CCn2c(nnc2C(F)(F)F)C1)Cc1cc(F)c(F)cc1F [sitagliptin] | 220
